# US10912814B2, “Combination formulation of three antiviral compounds” (priority 2016, dated 2021)
# Where two headings read alike, the source gives them in different places.
# What was measured:
# [1] = Physical (solid-state) stability, XRPD; assay type: physicochemical; settings: for tendency to crystallize in the presence of pre-existing crystalline voxilaprevir: spiked SOF/VEL SSD/VOX SSD tablets
# Method: As described previously, Form VIII of voxilaprevir is characterized by an X-ray powder diffractogram comprising the following peaks (±0.2°): at 7.8, 8.2, and 20.2°2θ, as determined on a diffractometer using Cu-Kα radiation.
# Voxilaprevir SSD is hygroscopic, with a reversible weight gain of 11% when cycled between 0% and 90% RH at 25° C.
# The impact of voxilaprevir SSD potency on the chemical and physical stability thereof was also evaluated (Table 5). This development study compared the properties of typical voxilaprevir SSD with 50% w/w voxilaprevir/50% w/w copovidone (Lot C) to those of sub-potent voxilaprevir SSD with 40% w/w voxilaprevir/60% w/w copovidone (Lot D) and super-potent voxilaprevir SSD with 60% w/w voxilaprevir/40% w/w copovidone (Lot E). Voxilaprevir SSD was packaged in a designated commercial packaging configuration (i.e., polyethylene bags sealed in aluminum bags with 5% w/w desiccant) and stored for 6 months at both 25° C./60% RH and 40° C./75% RH. […] All samples remained amorphous by XRPD throughout the duration of the study.
# The impact of reprocessed voxilaprevir SSD on the chemical and physical stability of voxilaprevir SSD was additionally evaluated. Voxilaprevir was reprocessed (re-dissolved, spray-dried, and secondary dried) twice and packaged in a designated commercial packaging configuration (i.e., polyethylene bags sealed in aluminum bags with 5% w/w desiccant) and stored for 6 months at both 25° C./60% RH and 40° C./75% RH. […] All samples remained amorphous by XRPD throughout the duration of the study.
# In some embodiments, the film-coated tablets were packaged in 75 and 100 mL white HDPE bottles (Lots A and B, respectively, as described in Tables 11A, 11B) with 1 g silica gel desiccant canisters and a polyester fiber coil. The 75 and 100 mL HDPE bottles contained fourteen and twenty eight tablets, respectively. […] The packaged tablets (14 and 28 counts) were evaluated for stability at 40° C./75% RH and 25° C./60% RH. Additionally, the 14-count bottles (without cap) were evaluated for stability under open conditions at 40° C./75% RH. […]
# [2] = Relative bioavailability study of voxilaprevir amorphous free acid tablets vs Form VI tablets in healthy subjects (fasted, fed); assay type: in vivo, human; settings: for AUC(0-inf) / Cmax: human, in vivo, oral, 100 mg
# Source text: Accordingly, a spray dried dispersion of voxilaprevir in the amorphous free acid form was selected for incorporation into the tablet formulation.
# [3] = Tablet dissolution in 50 mM sodium acetate buffer pH 5.0 with 2.0% w/v Polysorbate 80 and 0.001% w/v BHT, 75 rpm, 900 mL, 37° C., USP Type II; assay type: physicochemical; settings: for dissolution at 30 minutes: after 4 weeks open at 40° C./75% RH
# [4] = as above; assay type: physicochemical; settings: tablets containing voxilaprevir SSD
# Method: FIGS. 10-12 depict additional dissolution profiles for the sofosbuvir/velpatasvir SSD/voxilaprevir SSD tablets having the formulation described in Table 13 and which were used in phase 1, 2, and 3 clinical studies, where the dissolution testing was conducted at pH 5.0 acetate buffer containing 2.0% w/v polysorbate 80. Four batches of the sofosbuvir/velpatasvir SSD/voxilaprevir SSD tablets were tested, with Batch A manufactured at 100 kg and Batches B, C and D manufactured at 145 kg. All other aspects of the formulation and manufacturing process were otherwise equivalent. The four batches were packed in the same commercial configuration: 28 count, 100 mL HPDE bottle with 1 g silica gel desiccant canister and a polyester fiber coil. […] Moreover, for Batch A, the amount dissolved at 30 min remained between 98 and 100% for sofosbuvir, between 90 and 92% for velpatasvir SSD, and between 89 and 93% for voxilaprevir SSD. […] For Batch D, the amount dissolved at 30 min remained at 100% for sofosbuvir, between 90 and 91% for velpatasvir SSD, and between 89 and 91% for voxilaprevir SSD. Release of velpatasvir SSD and voxilaprevir SSD from the sofosbuvir/velpatasvir SSD/voxilaprevir SSD tablets associated with all four Batches was complete after 60 minutes.
# [5] = Tablet dissolution as a function of medium pH and composition (Apparatus II, 75 rpm, 900 mL, 37° C.); assay type: physicochemical; settings: Formulation G tablets
# BCS classification = assay type: physicochemical
# [6] = Photostability (light exposure, ICH Q1B); assay type: physicochemical; settings: tablets film-coated to weight gains of 2.1 to 5.4%, ICH Q1B
# Method: In some embodiments, and the Examples presented herein, the tablet formulation includes sofosbuvir having Form 6 and, optionally, a trace amount of Form 7.
# Tablet cores and film-coated tablets were evaluated per ICH Q1B guidelines with a total of illumination of more than 1.2 million-lux hours and a total irradiance of more than 200 W·hr/m^2.
# [7] = Storage stability: appearance, assay/label strength (LS), total impurities/degradation products; assay type: physicochemical; settings: all conditions
# Method: In some embodiments, the film-coated tablets were packaged in 75 and 100 mL white HDPE bottles (Lots A and B, respectively, as described in Tables 11A, 11B) with 1 g silica gel desiccant canisters and a polyester fiber coil. The 75 and 100 mL HDPE bottles contained fourteen and twenty eight tablets, respectively. Each HDPE bottle was capped using a white, continuous thread, child-resistant polypropylene screw cap with an […], aluminum-faced line. The packaged tablets (14 and 28 counts) were evaluated for stability at 40° C./75% RH and 25° C./60% RH. Additionally, the 14-count bottles (without cap) were evaluated for stability under open conditions at 40° C./75% RH.
# For each of the impact studies, the sofosbuvir/velpatasvir SSD/voxilaprevir SSD tablets were packaged in a designated commercial packaging configuration (28-count, 100 mL HPDE bottle, coil, 1 g desiccant), and stored for 12 weeks at 25° C./60% RH and 40° C./75% RH. Tablets were also packaged in open containers (28-count, 100 mL HPDE bottle without cap) and stored for 4 weeks at 40° C./75% RH and for 1 week at 50° C./92% RH.
# The sofosbuvir/velpatasvir SSD/voxilaprevir SSD tablets were packaged in the designated commercial packaging configuration (28-count, 100 mL HPDE bottle, coil, 1 g desiccant), and stored for 6 months at 25° C./60% RH and 40° C./75% RH.
# [8] = Voxilaprevir Form VI single and multiple oral dose pharmacokinetics in healthy subjects; assay type: in vivo, human; settings: for Cmax / half-life / Tmax / AUC / AUC(0-inf) / AUC(0-t): human, plasma; for Cmax / AUC / AUC(0-inf) / AUC(0-t): mean
# Method: Pub. No. 2015/0175625 A1. Initial studies were conducted using the crystalline Form VI of voxilaprevir. As described previously, Form VI of voxilaprevir is characterized by an X-ray powder diffractogram comprising the following peaks (±0.2°): at 14.6, 15.4, and 20.0°2θ, as determined on a diffractometer using Cu-Kα radiation. Following single and multiple oral doses of voxilaprevir, Form VI, maximum plasma concentrations occurred between 2.0 and 5.0 hours (median tmax). […] Steady-state concentrations of voxilaprevir, Form VI were achieved after 7 days of once-daily dosing across all dose levels (Table 2).
# [9] = 100 mg tablets, healthy subjects
# [10] = Amorphous Free Acid 100 mg, healthy subjects, fed (with moderate food)
# [11] = single dose 100 mg, healthy subjects, fasted (N = 15)
structure (smiles),measurement,setting,value
CC[C@@H]1[C@@H]2CN(C(=O)[C@H](C(C)(C)C)NC(=O)O[C@@H]3C[C@H]3CCCCC(F)(F)c3nc4ccc(OC)cc4nc3O2)[C@@H]1C(=O)N[C@]1(C(=O)NS(=O)(=O)C2(C)CC2)C[C@H]1C(F)F [Amorphous Free Acid],tendency to crystallize in the presence of pre-existing crystalline voxilaprevir,[1],no tendency to crystallize
same,"higher Cmax compared to tablets (2×50 mg) comprising voxilaprevir, Form VI",[2]; [9],~43%
same,"higher exposure (AUC) compared to tablets (2×50 mg) comprising voxilaprevir, Form VI",[2]; [9],approximately 9%
same,AUC(0-inf),"[2]; Amorphous Free Acid 100 mg, healthy subjects, fasted (N = 15)",367 ng·h/mL
same,AUC(0-inf),[2]; [10],494 ng·h/mL
same,Cmax,[2]; [10],44.2 ng/mL
same,AUC(0-inf),[2]; [11],367 ng·h/mL
same,Cmax,[2]; [11],32.7 ng/mL
same,"Cmax Geometric Least Square Ratio, Amorphous Free Acid/Form VI GMR","[2]; single dose, fasted",1.43
"CC[C@@H]1[C@@H]2CN(C(=O)[C@H](C(C)(C)C)NC(=O)O[C@@H]3C[C@H]3CCCCC(F)(F)c3nc4ccc(OC)cc4nc3O2)[C@@H]1C(=O)N[C@]1(C(=O)NS(=O)(=O)C2(C)CC2)C[C@H]1C(F)F [Voxilaprevir, (1aR,5S,8S,9S,10R,22aR)-5-tert-butyl-N-{(1R,2R)-2-(difluoromethyl)-1-[(1-methylcyclopropanesulfonyl)carbamoyl]cyclopropyl}-9-ethyl-18,18-difluoro-14-methoxy-3,6-dioxo-1,1a,3,4,5,6,9,10,18,19,20,21,22,22a-tetradecahydro-8H-7,10-methanocyclopropa[18,19][1,10,3,6]dioxadiazacyclononadecino[11,12-b]quinoxaline-8-carboxamide]",dissolution at 30 minutes,[3]; SSD potency tablets Lot A,85%
same,dissolution at 30 minutes,[3]; SSD potency tablets Lot B,91%
same,dissolution at 30 minutes,[3]; SSD potency tablets Lots C and D,92%
same,released at 30 minutes,[3]; spiked tablets containing 5% w/w voxilaprevir Form VIII or Form X,84%
same,released at 30 minutes,[3]; spiked tablets containing 10% w/w voxilaprevir Form VIII or Form X,80%
same,released at 30 minutes,[3]; spiked tablets containing 20% w/w voxilaprevir Form VIII or Form X,73%
same,released at 30 minutes,[3]; tablets containing 0% w/w crystalline voxilaprevir,91%
same,released at 30 minutes,[3]; tablets containing neat amorphous voxilaprevir free acid (physical mixture with copovidone),76%
same,released at 30 minutes,[4],91%
same,dissolution at 60 minutes in pH 4.0 and 5.0 containing 2.0% w/v polysorbate 80,[5],complete dissolution
same,"dissolution in pH 2.0, 4.5 and 6.8 buffers, FaSSIF and FeSSIF",[5],Incomplete dissolution
same,"aqueous solubility, pH dependence",BCS classification,pH-dependent solubility
same,level of degradation products,[6],0.0%
same,total impurities/degradation products,"[7]; desiccant/packaging study tablets, 6 months",0.0%
same,total impurities/degradation products,[7]; tablet Lots A-D from sub-potent/super-potent VEL SSD and VOX SSD,0.7%
same,total impurities/degradation products,[7]; tablets from VEL SSD with 6.0% residual ethanol and VOX SSD with 2.1% residual acetone,0.0%
same,total impurities/degradation products,[7]; tablets from VEL SSD with 7.0% and VOX SSD with 3.2% water content,0.0%
COC[C@H]1C[C@@H](c2ncc(-c3ccc4c(c3)COc3cc5c(ccc6nc([C@@H]7CC[C@H](C)N7C(=O)[C@@H](NC(=O)OC)C(C)C)[nH]c65)cc3-4)[nH]2)N(C(=O)[C@H](NC(=O)OC)c2ccccc2)C1 [amorphous velpatasvir free base],tendency to crystallize in the presence of pre-existing crystalline voxilaprevir,[1],no tendency to crystallize
"CC[C@@H]1[C@@H]2CN(C(=O)[C@H](C(C)(C)C)NC(=O)O[C@@H]3C[C@H]3CCCCC(F)(F)c3nc4ccc(OC)cc4nc3O2)[C@@H]1C(=O)N[C@]1(C(=O)NS(=O)(=O)C2(C)CC2)C[C@H]1C(F)F [voxilaprevir, Form VI]",physical stability of crystal form,[1]; converted to crystalline Form VIII,physically metastable
same,Cmax,"[8]; oral, 30 mg, multiple dose 30 mg",7.3 ng/mL
same,half-life,"[8]; oral, 30 mg, multiple dose 30 mg, median",41 h
same,Tmax,"[8]; oral, 30 mg, multiple dose 30 mg, median, read-out: tmax",5 h
same,Cmax,"[8]; oral, 30 mg, single dose 30 mg",3.7 ng/mL
same,half-life,"[8]; oral, 30 mg, single dose 30 mg, median",9.37 h
same,Tmax,"[8]; oral, 30 mg, single dose 30 mg, median, read-out: tmax",4 h
same,Cmax,"[8]; oral, 100 mg, multiple dose 100 mg",46 ng/mL
same,half-life,"[8]; oral, 100 mg, multiple dose 100 mg, median",30.5 h
same,Tmax,"[8]; oral, 100 mg, multiple dose 100 mg, median, read-out: tmax",5 h
same,Cmax,"[8]; oral, 100 mg, single dose 100 mg",17.6 ng/mL
same,half-life,"[8]; oral, 100 mg, single dose 100 mg, median",36.7 h
same,Tmax,"[8]; oral, 100 mg, single dose 100 mg, median, read-out: tmax",3 h
same,Cmax,"[8]; oral, 300 mg, multiple dose 300 mg",155 ng/mL
same,half-life,"[8]; oral, 300 mg, multiple dose 300 mg, median",27.6 h
same,Tmax,"[8]; oral, 300 mg, multiple dose 300 mg, median, read-out: tmax",5 h
same,Cmax,"[8]; oral, 300 mg, single dose 300 mg",34.5 ng/mL
same,half-life,"[8]; oral, 300 mg, single dose 300 mg, median",35.5 h
same,Tmax,"[8]; oral, 300 mg, single dose 300 mg, median, read-out: tmax",2 h
same,AUC,"[8]; oral, multiple dose 30 mg",74.2 ng·h/mL
same,AUC,"[8]; oral, multiple dose 100 mg",364 ng·h/mL
same,AUC,"[8]; oral, multiple dose 300 mg",1030 ng·h/mL
same,AUC(0-inf),"[8]; oral, single dose 30 mg",56.9 ng·h/mL
same,AUC(0-t),"[8]; oral, single dose 30 mg",33 ng·h/mL
same,AUC(0-inf),"[8]; oral, single dose 100 mg",245 ng·h/mL
same,AUC(0-t),"[8]; oral, single dose 100 mg",188 ng·h/mL
same,AUC(0-inf),"[8]; oral, single dose 300 mg",485 ng·h/mL
same,AUC(0-t),"[8]; oral, single dose 300 mg",425 ng·h/mL
same,Tmax,"[8]; po, single and multiple oral doses, read-out: time of maximum plasma concentrations (median tmax)",2 to 5 h
same,dose linearity of pharmacokinetics,"[8]; single and multiple dosing, 30 to 300 mg, healthy subjects",dose-linear pharmacokinetics
